According to PubChem BioAssay AID2060486 (Molecular Pharmacology Branch, DTP, NCI, 2025):

System: IGROV1 complex spheroids (HUVEC, MSC), viability % test/control
Assay: Anticancer human tumor IGROV1 cell line growth inhibition [GQUAD];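 also: spheroids exposed to compounds for 7 days before readout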;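 as to viability, T/C: 100% = DMSO vehicle control viability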
Conditions: for IC50: curve of first compound; for viability, T/C: stronger effect = lower value
Procedure, shortened: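 Viability of tumor cells grown as complex spheroids with endothelial and stromal cells, exposed to drug combinations. Top concentration at or near clinical Cmax (else 10 microM), diluted in half-log increments.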

[1] = second compound 0.0316 µM, first compound 0.0316 µM
[2] = second compound 0.0316 µM, first compound 0.316 µM
[3] = second compound 0.1 µM, first compound 0.0316 µM
[4] = second compound 0.1 µM, first compound 0.316 µM
[5] = second compound 0.316 µM, first compound 0.0316 µM
[6] = second compound 0.316 µM, first compound 0.316 µM
[7] = second compound 1 µM, first compound 0.0316 µM
[8] = second compound 1 µM, first compound 0.316 µM
[9] = second compound 3.16 µM, first compound 0.0316 µM
[10] = second compound 3.16 µM, first compound 0.316 µM
[11] = second compound 10 µM, first compound 0.0316 µM
[12] = second compound 10 µM, first compound 0.316 µM
[13] = second compound 0.0316 µM, first compound 0.1 µM
[14] = second compound 0.0316 µM, first compound 1 µM
[15] = second compound 0.0316 µM, first compound 3.16 µM
[16] = second compound 0.0316 µM, first compound 10 µM
[17] = second compound 0.1 µM, first compound 0.1 µM
[18] = second compound 0.1 µM, first compound 1 µM
[19] = second compound 0.1 µM, first compound 3.16 µM
[20] = second compound 0.1 µM, first compound 10 µM
[21] = second compound 0.316 µM, first compound 0.1 µM
[22] = second compound 0.316 µM, first compound 1 µM
[23] = second compound 0.316 µM, first compound 3.16 µM
[24] = second compound 0.316 µM, first compound 10 µM
[25] = second compound 1 µM, first compound 0.1 µM
[26] = second compound 1 µM, first compound 1 µM
[27] = second compound 1 µM, first compound 3.16 µM
[28] = second compound 1 µM, first compound 10 µM
[29] = second compound 3.16 µM, first compound 0.1 µM
[30] = second compound 3.16 µM, first compound 1 µM
[31] = second compound 3.16 µM, first compound 3.16 µM
[32] = second compound 3.16 µM, first compound 10 µM
[33] = second compound 10 µM, first compound 0.1 µM
[34] = second compound 10 µM, first compound 1 µM
[35] = second compound 10 µM, first compound 3.16 µM
[36] = second compound 10 µM, first compound 10 µM

Compound: Cc1[nH]c2ccccc2c1CCNCc1ccc(/C=C/C(=O)NO)cc1 + CN(C)c1ccc(Nc2c3ccc(NC(=O)CCN4CCCC4)cc3nc3cc(NC(=O)CCN4CCCC4)ccc23)cc1
- IC50 (second compound 0.0316 µM): 19.1 nM
- IC50 (second compound 0.1 µM): 10.2 nM
- IC50 (second compound 0.316 µM): 22.7 nM
- IC50 (second compound 1 µM): 14.7 nM
- IC50 (second compound 3.16 µM): 12.4 nM
- IC50 (second compound 10 µM): 11.7 nM
- viability, T/C (second compound 0.0316 µM, first compound 0.000999 µM): 104%
- viability, T/C (second compound 0.0316 µM, first compound 0.00316 µM): 84.2%
- viability, T/C (second compound 0.0316 µM, first compound 0.00999 µM): 79.3%
- viability, T/C [1]: 28.5%
- viability, T/C (second compound 0.0316 µM, first compound 0.0999 µM): 4.27%
- viability, T/C [2]: 0.32%
- viability, T/C (second compound 0.1 µM, first compound 0.000999 µM): 84.3%
- viability, T/C (second compound 0.1 µM, first compound 0.00316 µM): 67.5%
- viability, T/C (second compound 0.1 µM, first compound 0.00999 µM): 51.4%
- viability, T/C [3]: 30.1%
- viability, T/C (second compound 0.1 µM, first compound 0.0999 µM): 3.89%
- viability, T/C [4]: 0.33%
- viability, T/C (second compound 0.316 µM, first compound 0.000999 µM): 77.1%
- viability, T/C (second compound 0.316 µM, first compound 0.00316 µM): 77.7%
- viability, T/C (second compound 0.316 µM, first compound 0.00999 µM): 70.1%
- viability, T/C [5]: 42.1%
- viability, T/C (second compound 0.316 µM, first compound 0.0999 µM): 4.59%
- viability, T/C [6]: 0.38%
- viability, T/C (second compound 1 µM, first compound 0.000999 µM): 65.2%
- viability, T/C (second compound 1 µM, first compound 0.00316 µM): 89%
- viability, T/C (second compound 1 µM, first compound 0.00999 µM): 54.2%
- viability, T/C [7]: 31.2%
- viability, T/C (second compound 1 µM, first compound 0.0999 µM): 5.62%
- viability, T/C [8]: 0.2%
- viability, T/C (second compound 3.16 µM, first compound 0.000999 µM): 64%
- viability, T/C (second compound 3.16 µM, first compound 0.00316 µM): 82.1%
- viability, T/C (second compound 3.16 µM, first compound 0.00999 µM): 48.8%
- viability, T/C [9]: 29.6%
- viability, T/C (second compound 3.16 µM, first compound 0.0999 µM): 4.53%
- viability, T/C [10]: 0.37%
- viability, T/C (second compound 10 µM, first compound 0.000999 µM): 53%
- viability, T/C (second compound 10 µM, first compound 0.00316 µM): 55.4%
- viability, T/C (second compound 10 µM, first compound 0.00999 µM): 56.6%
- viability, T/C [11]: 18.1%
- viability, T/C (second compound 10 µM, first compound 0.0999 µM): 4.24%
- viability, T/C [12]: 0.47%

Compound: O=C(NO)c1cnc(N2CCN(S(=O)(=O)c3ccc4ccccc4c3)CC2)nc1 + CN(C)c1ccc(Nc2c3ccc(NC(=O)CCN4CCCC4)cc3nc3cc(NC(=O)CCN4CCCC4)ccc23)cc1
- IC50 (second compound 0.0316 µM): 60.1 nM
- IC50 (second compound 0.1 µM): 63.6 nM
- IC50 (second compound 0.316 µM): 55.6 nM
- IC50 (second compound 1 µM): 41.4 nM
- IC50 (second compound 3.16 µM): 47.2 nM
- IC50 (second compound 10 µM): < 31.6 nM
- viability, T/C [1]: 69.9%
- viability, T/C [13]: 34.2%
- viability, T/C [2]: 4.85%
- viability, T/C [14]: 0.26%
- viability, T/C [15]: 0.09%
- viability, T/C [16]: 0.1%
- viability, T/C [3]: 74.8%
- viability, T/C [17]: 33.9%
- viability, T/C [4]: 4.46%
- viability, T/C [18]: 0.26%
- viability, T/C [19]: 0.07%
- viability, T/C [20]: 0.09%
- viability, T/C [5]: 66.6%
- viability, T/C [21]: 32.6%
- viability, T/C [6]: 5.36%
- viability, T/C [22]: 0.25%
- viability, T/C [23]: 0.06%
- viability, T/C [24]: 0.08%
- viability, T/C [7]: 58%
- viability, T/C [25]: 23.6%
- viability, T/C [8]: 3.31%
- viability, T/C [26]: 0.23%
- viability, T/C [27]: 0.06%
- viability, T/C [28]: 0.08%
- viability, T/C [9]: 64.3%
- viability, T/C [29]: 23.4%
- viability, T/C [10]: 3.69%
- viability, T/C [30]: 0.27%
- viability, T/C [31]: 0.07%
- viability, T/C [32]: 0.08%
- viability, T/C [11]: 45.4%
- viability, T/C [33]: 14.4%
- viability, T/C [12]: 3.73%
- viability, T/C [34]: 0.21%
- viability, T/C [35]: 0.12%
- viability, T/C [36]: 0.11%

Compound: COc1ccc([C@@H](O)c2cc(-c3ncnc4cc(N5CCOCC5)ccc34)c(F)cc2Cl)nn1 + Cc1[nH]c2ccc(F)cc2c1-c1nc2c3cccnc3c3ncccc3c2[nH]1
- IC50 (second compound 0.0316 µM): 797 nM
- IC50 (second compound 0.1 µM): 812 nM
- IC50 (second compound 0.316 µM): 762 nM
- IC50 (second compound 1 µM): < 31.6 nM
- IC50 (second compound 3.16 µM): < 31.6 nM
- IC50 (second compound 10 µM): < 31.6 nM
- viability, T/C [1]: 92%
- viability, T/C [13]: 76.5%
- viability, T/C [2]: 86.5%
- viability, T/C [14]: 40.7%
- viability, T/C [15]: 21.9%
- viability, T/C [16]: 6.2%
- viability, T/C [3]: 92.2%
- viability, T/C [17]: 89.6%
- viability, T/C [4]: 91.5%
- viability, T/C [18]: 40.6%
- viability, T/C [19]: 19.5%
- viability, T/C [20]: 5.14%
- viability, T/C [5]: 66.3%
- viability, T/C [21]: 83.1%
- viability, T/C [6]: 82.6%
- viability, T/C [22]: 41.5%
- viability, T/C [23]: 12.3%
- viability, T/C [24]: 4.85%
- viability, T/C [7]: 3.85%
- viability, T/C [25]: 4.89%
- viability, T/C [8]: 4.79%
- viability, T/C [26]: 4.97%
- viability, T/C [27]: 4%
- viability, T/C [28]: 5.1%
- viability, T/C [9]: 3.89%
- viability, T/C [29]: 4.57%
- viability, T/C [10]: 3.71%
- viability, T/C [30]: 4.88%
- viability, T/C [31]: 3.87%
- viability, T/C [32]: 3.46%
- viability, T/C [11]: 3.68%
- viability, T/C [33]: 3.5%
- viability, T/C [12]: 4.28%
- viability, T/C [34]: 4.13%
- viability, T/C [35]: 5.35%
- viability, T/C [36]: 3.84%
